Experimental data reported in ChEMBL document CHEMBL1201862, “PubChem BioAssay data set” (2004).
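The compound was tested at five concentrations on cells cultured in 96-well plates, with a 48-hour exposure period. GI50 is the concentration that inhibits growth by half.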 Calls of active or inactive are those of the source. Rule as the data show it: active = GI50 up to about 1.1 µM and inactive = higher.

Legend:
Assay in all cases: NCI tumour cell line growth inhibition, 48 h
CCRF-CEM = test system: CCRF-CEM
MDA-MB-435 = test system: MDA-MB-435
UACC-257 = test system: UACC-257
SN12C = test system: SN12C
NCI-H460 = test system: NCI-H460
NCI-H522 = test system: NCI-H522
HCT-15 = test system: HCT-15
M14 = test system: M14
IGROV-1 = test system: IGROV-1
OVCAR-8 = test system: OVCAR-8
MDA-MB-231 = test system: MDA-MB-231
A549 = test system: A549
MCF7 = test system: MCF7
OVCAR-4 = test system: OVCAR-4
UO-31 = test system: UO-31
OVCAR-3 = test system: OVCAR-3
Malme-3M = test system: Malme-3M
SF-295 = test system: SF-295
SF-539 = test system: SF-539
SF-268 = test system: SF-268

Structure (SMILES)	GI50 (CCRF-CEM)	GI50 (MDA-MB-435)	GI50 (UACC-257)	GI50 (SN12C)	GI50 (NCI-H460)	GI50 (NCI-H522)	GI50 (HCT-15) [µM]	GI50 (M14)	GI50 (IGROV-1)	GI50 (OVCAR-8)	GI50 (MDA-MB-231)	GI50 (A549)	GI50 (MCF7)	GI50 (OVCAR-4)	GI50 (UO-31)	GI50 (OVCAR-3)	GI50 (Malme-3M)	GI50 (SF-295)	GI50 (SF-539)	GI50 (SF-268)
C=C1C(=O)O[C@@H]2C[C@@H](C)[C@@H]3C=CC(=O)[C@@]3(C)[C@@H](OC(=O)CCCC(=O)O[C@H]3[C@@H]4C(=C)C(=O)O[C@@H]4C[C@@H](C)[C@@H]4C=CC(=O)[C@]43C)[C@H]12	< 0.01 µM (active)	0.0167 µM (active)	0.114 µM (active)	0.0402 µM (active)	0.27 µM (active)	0.0102 µM (active)	0.0335	0.0217 µM (active)	0.112 µM (active)	0.0131 µM (active)	0.0284 µM (active)	1.63 µM (inactive)	0.0348 µM (active)	0.0455 µM (active)	0.135 µM (active)	0.0398 µM (active)	0.0176 µM (active)	0.989 µM (active)	0.0762 µM (active)	0.0693 µM (active)
OCCCSCCO	> 100 µM (inactive)	> 100 µM (inactive)	> 100 µM (inactive)	> 100 µM (inactive)	> 100 µM (inactive)	> 100 µM (inactive)	> 100	> 100 µM (inactive)	> 100 µM (inactive)	> 100 µM (inactive)	> 100 µM (inactive)	> 100 µM (inactive)	> 100 µM (inactive)	> 100 µM (inactive)	> 100 µM (inactive)	> 100 µM (inactive)	> 100 µM (inactive)	> 100 µM (inactive)	> 100 µM (inactive)	> 100 µM (inactive)
CC(C)(N)CO[C@H]1C[C@H]2CC[C@@]1(C)C2(C)C	25.2 µM (inactive)	16.3 µM (inactive)	17.8 µM (inactive)	39.9 µM (inactive)	17.9 µM (inactive)	18.7 µM (inactive)	19.8	16 µM (inactive)	39.2 µM (inactive)	20.6 µM (inactive)	17.8 µM (inactive)	38.5 µM (inactive)	19.4 µM (inactive)	23.1 µM (inactive)	16.5 µM (inactive)	49.8 µM (inactive)	18.2 µM (inactive)	19.9 µM (inactive)	22.4 µM (inactive)	44.9 µM (inactive)
C=C1C[C@@H]2O[C@H]3[C@H]4[C@@H](C[C@@H](C)[C@@H](OC(C)=O)[C@H]42)[C@@H](C)CO[C@@]3(C)[C@H](OC(C)=O)C[C@H]1O	25.9 µM (inactive)	33 µM (inactive)	> 100 µM (inactive)	> 100 µM (inactive)	70.8 µM (inactive)	48 µM (inactive)	> 100	> 100 µM (inactive)	> 100 µM (inactive)	82.6 µM (inactive)	> 100 µM (inactive)	> 100 µM (inactive)	84.5 µM (inactive)	> 100 µM (inactive)	77.6 µM (inactive)	65.2 µM (inactive)	> 100 µM (inactive)	> 100 µM (inactive)	> 100 µM (inactive)	> 100 µM (inactive)
O=C1C=C(N2CCN(CCOCCO)CC2)C(=O)c2c(O)ccc(O)c21	3.17 µM (inactive)	1.82 µM (inactive)	1.62 µM (inactive)	4.22 µM (inactive)	2.92 µM (inactive)	2.9 µM (inactive)	1.64	1.56 µM (inactive)	3.74 µM (inactive)	3.44 µM (inactive)	7.35 µM (inactive)	3.56 µM (inactive)	1.42 µM (inactive)	3.76 µM (inactive)	10.3 µM (inactive)	1.82 µM (inactive)	1.52 µM (inactive)	14 µM (inactive)	10.6 µM (inactive)	17.3 µM (inactive)
Cc1ccc(I)cc1N=C=S	21.8 µM (inactive)	23.1 µM (inactive)	25 µM (inactive)	20.7 µM (inactive)	23.5 µM (inactive)	17.2 µM (inactive)	17.8	20.2 µM (inactive)	28.8 µM (inactive)	38.4 µM (inactive)	28.2 µM (inactive)	28.6 µM (inactive)	21.2 µM (inactive)	26.9 µM (inactive)	17.3 µM (inactive)	31 µM (inactive)	25.1 µM (inactive)	26.9 µM (inactive)	18.8 µM (inactive)	27.6 µM (inactive)
O=C1C=CC(=O)C(CNc2ccc(C(=O)OC34CC5CC(CC(C5)C3)C4)cc2)=C1Br	1.99 µM (inactive)	14.7 µM (inactive)	13.5 µM (inactive)	11.1 µM (inactive)	11.5 µM (inactive)	0.435 µM (active)	5.19	13.4 µM (inactive)	3.73 µM (inactive)	5.51 µM (inactive)	10.2 µM (inactive)	13.3 µM (inactive)	15.9 µM (inactive)	5.19 µM (inactive)	6.75 µM (inactive)	13.5 µM (inactive)	4.9 µM (inactive)	14.1 µM (inactive)	1.59 µM (inactive)	12.2 µM (inactive)
CCOC(=O)C#Cc1cccc(C#CC(=O)OCC)c1	1.22 µM (inactive)	4.59 µM (inactive)	10.2 µM (inactive)	3.03 µM (inactive)	11.1 µM (inactive)	15.8 µM (inactive)	3.31	2.13 µM (inactive)	18.2 µM (inactive)	6.98 µM (inactive)	5.79 µM (inactive)	6.53 µM (inactive)	5.62 µM (inactive)	3.59 µM (inactive)	4.51 µM (inactive)	6.07 µM (inactive)	5.14 µM (inactive)	1.65 µM (inactive)	5.14 µM (inactive)	6.52 µM (inactive)
C=CCCCCCCCCCOC1C=CC(OC(C)=O)C(COC(C)=O)O1 (stereo not given)	39.1 µM (inactive)	50.8 µM (inactive)	29 µM (inactive)	42.8 µM (inactive)	38.7 µM (inactive)	26.5 µM (inactive)	36.6	30.1 µM (inactive)	27 µM (inactive)	18.1 µM (inactive)	> 100 µM (inactive)	55.7 µM (inactive)	38.8 µM (inactive)	45.8 µM (inactive)	44.8 µM (inactive)	44.4 µM (inactive)	35.2 µM (inactive)	72.9 µM (inactive)	> 100 µM (inactive)	37.3 µM (inactive)
CC(C)(C)N/N=C(\C(=O)Nc1ccc([N+](=O)[O-])cc1[N+](=O)[O-])c1nc2ccc([N+](=O)[O-])cc2nc1O	98.9 µM (inactive)	> 100 µM (inactive)	> 100 µM (inactive)	> 100 µM (inactive)	31.8 µM (inactive)	66.7 µM (inactive)	43.4	> 100 µM (inactive)	> 100 µM (inactive)	48.5 µM (inactive)	> 100 µM (inactive)	> 100 µM (inactive)	79.6 µM (inactive)	33.3 µM (inactive)	82.2 µM (inactive)	> 100 µM (inactive)	> 100 µM (inactive)	31.5 µM (inactive)	> 100 µM (inactive)	> 100 µM (inactive)
c1csc(-c2csc(-c3cccs3)c2)c1	49.2 µM (inactive)	25.8 µM (inactive)	40 µM (inactive)	34.2 µM (inactive)	88.3 µM (inactive)	29.4 µM (inactive)	27.7	58.1 µM (inactive)	78.5 µM (inactive)	> 100 µM (inactive)	> 100 µM (inactive)	30.8 µM (inactive)	8.85 µM (inactive)	77.4 µM (inactive)	57.8 µM (inactive)	29.4 µM (inactive)	51.8 µM (inactive)	35.9 µM (inactive)	> 100 µM (inactive)	84.5 µM (inactive)
COC(c1ccsc1)C(C#N)(C#N)/N=C/c1ccsc1 (stereo not given)	5.96 µM (inactive)	15.5 µM (inactive)	14.7 µM (inactive)	16.7 µM (inactive)	18.4 µM (inactive)	6.73 µM (inactive)	13	17.8 µM (inactive)	17.1 µM (inactive)	18.1 µM (inactive)	7.4 µM (inactive)	30.5 µM (inactive)	2.18 µM (inactive)	20.9 µM (inactive)	13.4 µM (inactive)	12.6 µM (inactive)	15.3 µM (inactive)	18.1 µM (inactive)	15.7 µM (inactive)	16.1 µM (inactive)
CCCC(=O)Nc1cn(COC)c(C(=O)N2C[C@@H]3C[C@]34C2=CC(=O)c2[nH]cc(C)c24)n1	1.27 µM (inactive)	9.23 µM (inactive)	8.13 µM (inactive)	11.2 µM (inactive)	4.79 µM (inactive)	3.28 µM (inactive)	13.7	13.4 µM (inactive)	9.25 µM (inactive)	4.23 µM (inactive)	8.47 µM (inactive)	10.8 µM (inactive)	2.45 µM (inactive)	7.82 µM (inactive)	12.3 µM (inactive)	10.3 µM (inactive)	1.72 µM (inactive)	15.6 µM (inactive)	11.7 µM (inactive)	5.31 µM (inactive)
O=C(O)c1ccccc1CC1Cc2cc3c(cc2C1)CCC3	> 100 µM (inactive)	> 100 µM (inactive)	> 100 µM (inactive)	> 100 µM (inactive)	> 100 µM (inactive)	> 100 µM (inactive)	99.3	> 100 µM (inactive)	> 100 µM (inactive)	> 100 µM (inactive)	> 100 µM (inactive)	95.1 µM (inactive)	> 100 µM (inactive)	80.5 µM (inactive)	> 100 µM (inactive)	> 100 µM (inactive)	> 100 µM (inactive)	> 100 µM (inactive)	> 100 µM (inactive)	> 100 µM (inactive)
